Measured values published in article PMC6100475, “Development and Validation of a HPLC-MS/MS Method for Simultaneous Determination of Twelve Bioactive Compounds in Epimedium: Application to a Pharmacokinetic Study in Rats” (Molecules : A Journal of Synthetic Chemistry and Natural …, 2018).

Columns and labels:
[1] = Pharmacokinetic study in rats after oral administration of Epimedium extract (HPLC-MS/MS of plasma); type: in vivo, Male Sprague-Dawley rats; settings: rat plasma, single oral dose of Epimedium extract 10 g/kg; for AUC(0-inf) / half-life / AUC / MRT / MRT inf: male, Sprague-Dawley; for AUC(0-inf) / half-life / AUC / MRT / MRT inf / Cmax1 / Tmax1: n = 6; for AUC: read-out: AUC(0-tn); for MRT: read-out: MRT(0-tn); for MRT inf: read-out: MRT(0-∞); for Cmax2 / Tmax2: n = 6, second peak
Procedure: An Agilent 1200 Series HPLC system, which consisted of a binary pump (G1312A), an auto-sampler (G1367B), an online degasser unit (G1322A), along with temperature-controlled column compartment (G1316A), was used for the analysis. The twelve compounds and IS were separated on a CORTECS®C18 column (4.6 mm × 150 mm, 2.7 μm) maintained at 30 °C with the mobile phase consisted of acetonitrile (A) and 0.1% (v/v) formic acid (B). The flow rate was 0.3 mL/min. The gradient elution was as follows: 0–4 min, 20–50% A; 4–5 min, 50–60% A; 5–15 min, 60–70% A. The injection volume was 5 μL.
The tandem mass spectrometry was performed on a triple-quadrupole mass spectrometer equipped with an electrospray ionization (ESI) source (Agilent G6430A system). Nitrogen gas served as the nebulizer, drying, and collision gas. Analytes were monitored by SRM in negative mode with the electrospray ionization parameters optimized as follows: ion spray voltage of −4000 V, capillary temperature of 350 °C, auxiliary nitrogen pressure of 20 psi, drying gas flow of 9 L/min. The mass spectrometric parameters of precursor ion, product ion, collision energy (CE) and fragmentor (Frag) for analytes are listed in Table 6. Both the collision energy and the fragmentor were optimized for each compound by infusion of the standard solutions of methanol to mass spectrometry directly. The peak in sample was recognized as the target compound if the retention time, precursor ion, and product ion are same as the stand. For each analyte, the most abundant product ion was chosen for quantification. All analytes were quantified using the 6-point calibration curve. The peak areas were used for quantification following an internal algorithm. For each batch of samples processed and analyzed, the determined concentration of each compound in the QC samples, as quantified by the standard curves, was required to fall within ±15% of the known concentration for the data to be included in the final analysis.
Male Sprague-Dawley rats (220 ± 10) g were obtained from the Beijing HUAFUKANG Bioscience Co., Inc. (Beijing, China). Six male rats were acclimatized to the facilities for a week and fasted for 12 h, but allowed free access to water, before dosing. The Epimedium extract was suspended in 0.5% carboxymethyl cellulose sodium (CMC-Na) aqueous solution and given to each rat by oral administration at a single dose of 10 g/kg. Blood samples (250 μL) were collected from the fossa orbitalis of rats at 0 (before dosing), 0.03, 0.08, 0.17, 0.25, 0.5, 1, 2, 4, 6, 8, 10, 12 and 24 h after dosing. Then, the blood samples were centrifuged at 6000 g for 10 min to obtain the plasma, and the plasma was removed to another EP tube and frozen at −70 °C until analysis. The rat plasma concentration–time data of 12 analytes were computed by the software “Drug and Statistics 1.0” (DAS 1.0)

[2] = parameters: method as in PMID 20705408; settings: previous reports ref 19; cited from earlier work

| SMILES | AUC(0-inf) [1] [ng·h/mL] | half-life [1] [h] | AUC [1] [ng·h/mL] | MRT [1] [h] | MRT inf [1] [h] | Cmax1 [1] [ng/mL] | Tmax1 [1] [h] | Cmax2 [1] [ng/mL] | Tmax2 [1] [h] | bimodal phenomenon of plasma concentration–time curve [2] |
| --- | --- | --- | --- | --- | --- | --- | --- | --- | --- | --- |
| O=C(/C=C/c1ccc(O)c(O)c1)O[C@H]1[C@H](O)C[C@](O)(C(=O)O)C[C@H]1O [cryptochlorogenic acid] | 404 ± 169 | 0.53 ± 0.24 | 398 ± 171 | 3.75 ± 1.91 | 3.82 ± 2.48 | 269.77 ± 114.07 | 0.19 ± 0.05 | – | – | – |
| CC(C)=CCc1c(O)cc(O)c2c(=O)c(OC3OC(C)C(O)C(O)C3O)c(-c3ccc(O)cc3)oc12 (stereo not shown) [baohuoside II] | 355 ± 144 | 6.93 ± 2.94 | 246 ± 133 | 11.5 ± 1.99 | 16.5 ± 3.06 | 6.87 ± 4.58 | 0.18 ± 0.03 | 29.17 ± 7.70 | 10.67 ± 1.03 | – |
| COc1ccc(-c2oc3c(CC=C(C)C)c(O)cc(O)c3c(=O)c2O[C@@H]2O[C@@H](C)[C@H](O)[C@@H](O)[C@H]2O[C@@H]2O[C@H](CO)[C@@H](O)[C@H](O)[C@H]2O)cc1 [sagittatoside A] | 1780 ± 352 | 13.8 ± 7.09 | 1610 ± 349 | 12 ± 0.71 | 14.3 ± 2 | 20.35 ± 10.26 | 0.18 ± 0.03 | 203.50 ± 97.03 | 11.67 ± 0.82 | – |
| COc1ccc(-c2oc3c(CC=C(C)C)c(O)cc(O)c3c(=O)c2O[C@@H]2O[C@@H](C)[C@H](O)[C@@H](O)[C@H]2O)cc1 [baohuoside I] | 1680 ± 599 | 13.2 ± 4.8 | 1450 ± 616 | 10.8 ± 1.21 | 15.7 ± 4.1 | 65.20 ± 33.56 | 0.38 ± 0.14 | 170.73 ± 66.97 | 10.00 ± 1.79 | bimodal phenomenon |
| COc1ccc(-c2oc3c(CC=C(C)C)c(O)cc(O)c3c(=O)c2OC2OC(C)C(O)C(O)C2OC2OCC(O)C(O)C2O)cc1 (stereo not shown) [sagittatoside B] | 1040 ± 202 | 9.38 ± 2.11 | 854 ± 171 | 11.7 ± 1.17 | 14.9 ± 2.09 | 19.38 ± 9.79 | 0.20 ± 0.04 | 112.97 ± 44.50 | 11.00 ± 1.67 | – |
| O=C(/C=C/c1ccc(O)c(O)c1)O[C@@H]1C[C@@](O)(C(=O)O)C[C@@H](O)[C@@H]1O [neochlorogenic acid] | 269 ± 70.9 | 0.64 ± 0.27 | 264 ± 68.2 | 3.18 ± 1.57 | 3.25 ± 1.97 | 205.96 ± 75.12 | 0.19 ± 0.05 | – | – | – |
| COc1ccc(-c2oc3c(CC=C(C)C)c(O[C@@H]4O[C@H](CO)[C@@H](O)[C@H](O)[C@H]4O)cc(O)c3c(=O)c2O[C@@H]2O[C@@H](C)[C@H](O)[C@@H](O)[C@H]2O)cc1 [icariin] | 325 ± 209 | 0.41 ± 0.19 | 323 ± 205 | 2.71 ± 0.79 | 2.75 ± 0.97 | 350.28 ± 195.96 | 0.16 ± 0.05 | – | – | – |
| O=C(/C=C/c1ccc(O)c(O)c1)O[C@@H]1C[C@](O)(C(=O)O)C[C@@H](O)[C@H]1O [chlorogenic acid] | 886 ± 377 | 0.45 ± 0.3 | 880 ± 365 | 3.85 ± 1.28 | 3.91 ± 1.32 | 540.28 ± 225.18 | 0.19 ± 0.05 | – | – | – |
| COc1ccc2c(c1O)-c1c(O)c(OC)cc3c1[C@H](C2)[N+](C)(C)CC3 [magnoflorine] | 4000 ± 970 | 17.8 ± 8.25 | 3680 ± 875 | 9.86 ± 0.75 | 12.5 ± 1.72 | 411.40 ± 110.77 | 0.18 ± 0.03 | 275.67 ± 89.36 | 10.67 ± 1.63 | – |
| COc1ccc(-c2oc3c(CC=C(C)C)c(OC4OC(CO)C(O)C(O)C4O)cc(O)c3c(=O)c2OC2OC(C)C(O)C(O)C2OC2OC(CO)C(O)C(O)C2O)cc1 (stereo not shown) [epimedin A] | 600 ± 219 | 12.5 ± 6.85 | 550 ± 199 | 10.8 ± 2.33 | 14.1 ± 3.98 | 82.79 ± 7.61 | 0.22 ± 0.04 | 59.34 ± 26.24 | 9.33 ± 0.94 | bimodal phenomenon |
| COc1ccc(-c2oc3c(CC=C(C)C)c(OC4OC(CO)C(O)C(O)C4O)cc(O)c3c(=O)c2OC2OC(C)C(O)C(O)C2OC2OCC(O)C(O)C2O)cc1 (stereo not shown) [epimedin B] | 1070 ± 212 | 3.64 ± 3.68 | 946 ± 250 | 6.98 ± 1.14 | 8.37 ± 2.39 | 316.73 ± 59.06 | 0.19 ± 0.07 | 129.90 ± 77.04 | 7.67 ± 0.75 | bimodal phenomenon |
| COc1ccc(-c2oc3c(CC=C(C)C)c(OC4OC(CO)C(O)C(O)C4O)cc(O)c3c(=O)c2OC2OC(C)C(O)C(O)C2OC2OC(C)C(O)C(O)C2O)cc1 (stereo not shown) [epimedin C] | 919 ± 215 | 17.9 ± 8.23 | 850 ± 269 | 9.33 ± 2.34 | 12.5 ± 2.59 | 135.22 ± 31.26 | 0.22 ± 0.04 | 103.20 ± 33.10 | 7.67 ± 0.75 | – |
